Measured values taken from ChEMBL document CHEMBL1136380, “Synthesis of beta-lactamase activated nitric oxide donors” (Bioorg Med Chem Lett, 2003).

How the values were obtained:
[1] = The NO releasing ability measured through the formation of nitrite (NO2) in solution, following incubation of the compound
[2] = NO releasing ability of the measured through the formation of nitrite (NO2) in solution, following incubation in the absence of beta-lactamase (Compound+penicillinase)
[3] = NO releasing ability of the measured through the formation of nitrite (NO2) in solution, following incubation in the presence of beta-lactamase

Row | Concentration [1] [µM] | Concentration [2] [µM] | Concentration [3] [µM] | SMILES
1 | 15.5 | – | – | [NH-]c1c[n+](N2CCOCC2)no1
2 | – | 10.2 | 2.2 | O=C(Cc1cccs1)N[C@@H]1C(=O)N2C(C(=O)O)=C(COC(=O)/N=c3/c[n+](N4CCOCC4)[n-]o3)CS[C@H]12
